Assay: Transdermal flux / transdermal delivery from patch
Assay type: in vitro ADME
Details: enhancer at 3% in PIB adhesive

Row | Compound | transdermal delivery from PIB
1 | CCCCCCCCCCCCN1CCCCCC1=O [Azon] | double
2 | CCCCCCCC/C=C\CCCCCCCC(=O)O [oleic acid] | double

— patent US20210186860A1, “Improved Delivery Systems for Moieties Including CBD Enhanced Combinations, Formulations and Chimeras” (LIFE TECH GLOBAL, LLC, priority 2017, published 2021)
